Converted amounts (≈) assume the structure as drawn. Read-outs that look alike come from different tables or passages of the source.
How the values were obtained:
[1] = In-vivo absorbency (plasma concentrations & pharmacokinetic parameters); parameters: species or system SD rat (male); conditions: plasma, SD male rat, iv 20 mg/kg; for concentration at 1 h: 60 min; for concentration at 1 h / concentration at 2 h: read-out: Plasma Conc.; for concentration at 2 h: 120 min; for AUC / half-life: two compartment model; for half-life: rat, iv, 20 mg/kg
Text: The blood samples from the femoral vein of the rats were taken every hour after administration, and analyzed by bio-assay(agar well method).
Tested animal: SD male Rat (220~340 g)

[2] = test system: Staphylococcus aureus methicillin susceptible; experiment: Antibacterial activity against clinically isolated strains, MIC; assay type: cell-based; conditions: methicillin susceptible, 42 clinical isolates, broth microdilution test; for MIC90: read-out: MIC 90%
[3] = test system: Proteus vulgaris ATCC 6059; experiment: Antibacterial activity, MIC; assay type: cell-based; conditions: ATCC6059, ATCC 6059, agar two-fold dilution, 37° C., 20 hours, read-out: MIC
In short: (§1)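 MIC by two-fold serial dilution in Mueller-Hinton agar; inoculum 2 μl at 10^7 CFU/ml; 37 °C, 20 h.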

[4] = test system: Providencia rettgeri ATCC 9250; experiment: Antibacterial activity, MIC; assay type: cell-based; conditions: ATCC9250, agar two-fold dilution, 37° C., 20 hours
In short: as §1

[5] = test system: Proteus mirabilis ATCC 25933; experiment: Antibacterial activity, MIC; assay type: cell-based; conditions: ATCC25933, ATCC 25933, agar two-fold dilution, 37° C., 20 hours, read-out: MIC
In short: as §1

[6] = test system: Acinetobacter calcoaceticus ATCC 15473; experiment: Antibacterial activity, MIC; assay type: cell-based; conditions: ATCC15473, ATCC 15473, agar two-fold dilution, 37° C., 20 hours, read-out: MIC
In short: as §1

[7] = test system: Staphylococcus aureus ATCC 6538p; experiment: Antibacterial activity, MIC; assay type: cell-based; conditions: ATCC6538P, ATCC 6538p, agar two-fold dilution, 37° C., 20 hours, read-out: MIC
In short: as §1

[8] = test system: Enterobacter aerogenes ATCC 29751; experiment: Antibacterial activity, MIC; assay type: cell-based; conditions: Klebsiella aerogenes, ATCC29751; ATCC 29751; agar two-fold dilution, 37° C., 20 hours; read-out: MIC
In short: as §1

[9] = test system: Serratia marcescens ATCC 27117; experiment: Antibacterial activity, MIC; assay type: cell-based; conditions: ATCC27117, ATCC 27117, agar two-fold dilution, 37° C., 20 hours, read-out: MIC
In short: as §1

[10] = test system: Micrococcus luteus ATCC 9341; experiment: Antibacterial activity, MIC; assay type: cell-based; conditions: ATCC9341, ATCC 9341, agar two-fold dilution, 37° C., 20 hours, read-out: MIC
In short: as §1

[11] = test system: Salmonella typhimurium ATCC 14028; experiment: Antibacterial activity, MIC; assay type: cell-based; conditions: Salmonella enterica; ATCC 14028; agar two-fold dilution, 37° C., 20 hours; read-out: MIC
In short: as §1

[12] = test system: Pseudomonas aeruginosa ATCC 25619; experiment: Antibacterial activity, MIC; assay type: cell-based; conditions: ATCC25619, ATCC 25619, agar two-fold dilution, 37° C., 20 hours, read-out: MIC
In short: as §1

[13] = test system: Enterobacter cloacae ATCC 27508; experiment: Antibacterial activity, MIC; assay type: cell-based; conditions: ATCC27508, ATCC 27508, agar two-fold dilution, 37° C., 20 hours, read-out: MIC
In short: as §1

[14] = test system: Staphylococcus epidermidis ATCC 12228; experiment: Antibacterial activity, MIC; assay type: cell-based; conditions: ATCC12228, ATCC 12228, agar two-fold dilution, 37° C., 20 hours, read-out: MIC
In short: as §1

[15] = test system: Shigella flexneri ATCC 11836; experiment: Antibacterial activity, MIC; assay type: cell-based; conditions: ATCC11836, agar two-fold dilution, 37° C., 20 hours
In short: as §1

[16] = test system: Citrobacter freundii ATCC 8090; experiment: Antibacterial activity, MIC; assay type: cell-based; conditions: ATCC8090, ATCC 8090, agar two-fold dilution, 37° C., 20 hours, read-out: MIC
In short: as §1

[17] = test system: Escherichia coli ATCC 10536; experiment: Antibacterial activity, MIC; assay type: cell-based; conditions: ATCC10536, agar two-fold dilution, 37° C., 20 hours
In short: as §1

[18] = test system: Morganella morganii ATCC 8076h; experiment: Antibacterial activity, MIC; assay type: cell-based; conditions: ATCC8076H, agar two-fold dilution, 37° C., 20 hours
In short: as §1

[19] = test system: Bacillus megaterium ATCC 9885; experiment: Antibacterial activity, MIC; assay type: cell-based; conditions: Priestia megaterium, ATCC9885; ATCC 9885; agar two-fold dilution, 37° C., 20 hours; read-out: MIC
In short: as §1

[20] = test system: Bacillus cereus ATCC 11778; experiment: Antibacterial activity, MIC; assay type: cell-based; conditions: ATCC11778, ATCC 11778, agar two-fold dilution, 37° C., 20 hours, read-out: MIC
In short: as §1

[21] = test system: Klebsiella pneumoniae ATCC 10031; experiment: Antibacterial activity, MIC; assay type: cell-based; conditions: ATCC10031, ATCC 10031, agar two-fold dilution, 37° C., 20 hours, read-out: MIC
In short: as §1

[22] = test system: Pseudomonas aeruginosa ATCC 10145; experiment: Antibacterial activity, MIC; assay type: cell-based; conditions: ATCC10145, ATCC 10145, agar two-fold dilution, 37° C., 20 hours, read-out: MIC
In short: as §1

[23] = test system: Pseudomonas aeruginosa ATCC 27853; experiment: Antibacterial activity, MIC; assay type: cell-based; conditions: ATCC27853, ATCC 27853, agar two-fold dilution, 37° C., 20 hours, read-out: MIC
In short: as §1

[24] = test system: Staphylococcus aureus ATCC 10537; experiment: Antibacterial activity, MIC; assay type: cell-based; conditions: ATCC10537, ATCC 10537, agar two-fold dilution, 37° C., 20 hours, read-out: MIC
In short: as §1

[25] = test system: Escherichia coli ATCC 25922; experiment: Antibacterial activity, MIC; assay type: cell-based; conditions: ATCC25922, agar two-fold dilution, 37° C., 20 hours
In short: as §1

[26] = test system: Shigella sonnei ATCC 11060; experiment: Antibacterial activity, MIC; assay type: cell-based; conditions: ATCC11060, ATCC 11060, agar two-fold dilution, 37° C., 20 hours, read-out: MIC
In short: as §1

[27] = test system: Klebsiella pneumoniae; experiment: Antibacterial activity against clinically isolated strains, MIC; assay type: cell-based; conditions: 10 clinical isolates, broth microdilution test; for MIC90: read-out: MIC 90%

| SMILES | concentration at 1 h [1] [ng/mL] | concentration at 2 h [1] [ng/mL] | AUC [1] [ng·h/mL] | half-life ([1]; read-out: T1/2 (α)) [min] | half-life ([1]; read-out: T1/2 (β)) [min] | MIC50 [2] [µg/mL] | MIC90 [2] [µg/mL] | MIC [3] [µg/mL] | MIC [4] [µg/mL] | MIC [5] [µg/mL] | MIC [6] [µg/mL] | MIC [7] [µg/mL] | MIC [8] [µg/mL] | MIC [9] [µg/mL] | MIC [10] [µg/mL] | MIC [11] [µg/mL] | MIC [12] [µg/mL] | MIC [13] [µg/mL] | MIC [14] [µg/mL] | MIC [15] [µg/mL] | further results |
| --- | --- | --- | --- | --- | --- | --- | --- | --- | --- | --- | --- | --- | --- | --- | --- | --- | --- | --- | --- | --- | --- |
| CCO/N=C(\C(=O)NC1C(=O)N2C(C(=O)[O-])=C(CSc3nc(N)cc(N)[n+]3N)CSC12)c1csc(N)n1 (stereo not drawn) [Compound I-16] | 8800 | 1900 | 38400 | 4 | 24 | 0.25 (≈ 0.441 µM) | 0.25 (≈ 0.441 µM) | 0.13 (≈ 0.229 µM) | ≤ 0.008 | 0.13 (≈ 0.229 µM) | 4 (≈ 7.06 µM) | 0.25 (≈ 0.441 µM) | 0.25 (≈ 0.441 µM) | 0.13 (≈ 0.229 µM) | 0.016 (≈ 0.0282 µM) | 0.25 (≈ 0.441 µM) | 0.5 (≈ 0.882 µM) | 0.016 (≈ 0.0282 µM) | 0.063 (≈ 0.111 µM) | 0.016 (≈ 0.0282 µM) | MIC [16]: 0.063 µg/mL (≈ 0.111 µM); MIC [17]: 0.063 µg/mL (≈ 0.111 µM); MIC [18]: ≤ 0.008 µg/mL; MIC [19]: 0.063 µg/mL (≈ 0.111 µM); MIC [20]: 4 µg/mL (≈ 7.06 µM); MIC [21]: ≤ 0.008 µg/mL; MIC [22]: 4 µg/mL (≈ 7.06 µM); MIC [23]: 2 µg/mL (≈ 3.53 µM); MIC [24]: 0.25 µg/mL (≈ 0.441 µM); MIC [25]: 0.063 µg/mL (≈ 0.111 µM); MIC [26]: 0.063 µg/mL (≈ 0.111 µM); MIC50 [27]: 0.13 µg/mL (≈ 0.229 µM); MIC90 [27]: 0.13 µg/mL (≈ 0.229 µM) |
| Cc1c(N)nc(SCC2=C(C(=O)[O-])N3C(=O)C(NC(=O)/C(=N\OC(C)(C)C(=O)O)c4csc(N)n4)C3SC2)[n+](C)c1N (stereo not drawn) [Compound I-30] | 9600 | 2700 | 41800 | 4 | 30 | 2 (≈ 3.14 µM) | 4 (≈ 6.27 µM) | 0.063 (≈ 0.0988 µM) | ≤ 0.008 | 0.031 (≈ 0.0486 µM) | 4 (≈ 6.27 µM) | 4 (≈ 6.27 µM) | 2 (≈ 3.14 µM) | 0.13 (≈ 0.204 µM) | 0.5 (≈ 0.784 µM) | 0.25 (≈ 0.392 µM) | 2 (≈ 3.14 µM) | 0.063 (≈ 0.0988 µM) | 2 (≈ 3.14 µM) | 0.031 (≈ 0.0486 µM) | MIC [16]: 0.13 µg/mL (≈ 0.204 µM); MIC [17]: 0.063 µg/mL (≈ 0.0988 µM); MIC [18]: ≤ 0.008 µg/mL; MIC [19]: 0.5 µg/mL (≈ 0.784 µM); MIC [20]: 128 µg/mL (≈ 201 µM); MIC [21]: 0.063 µg/mL (≈ 0.0988 µM); MIC [22]: 2 µg/mL (≈ 3.14 µM); MIC [23]: 2 µg/mL (≈ 3.14 µM); MIC [24]: 2 µg/mL (≈ 3.14 µM); MIC [25]: 0.063 µg/mL (≈ 0.0988 µM); MIC [26]: 0.063 µg/mL (≈ 0.0988 µM); MIC50 [27]: 0.13 µg/mL (≈ 0.204 µM); MIC90 [27]: 0.25 µg/mL (≈ 0.392 µM) |
| CCC[n+]1c(N)cc(N)nc1SCC1=C(C(=O)[O-])N2C(=O)C(NC(=O)/C(=N\OC(C)C(=O)O)c3csc(N)n3)C2SC1 (stereo not drawn) [Compound I-45] | 11000 | 3600 | 42900 | 4 | 38 | 2 (≈ 3.14 µM) | 2 (≈ 3.14 µM) | 0.063 (≈ 0.0988 µM) | ≤ 0.008 | 0.063 (≈ 0.0988 µM) | 8 (≈ 12.5 µM) | 2 (≈ 3.14 µM) | 1 (≈ 1.57 µM) | 0.13 (≈ 0.204 µM) | 0.5 (≈ 0.784 µM) | 0.25 (≈ 0.392 µM) | 1 (≈ 1.57 µM) | 0.016 (≈ 0.0251 µM) | 1 (≈ 1.57 µM) | 0.031 (≈ 0.0486 µM) | MIC [16]: 0.063 µg/mL (≈ 0.0988 µM); MIC [17]: 0.063 µg/mL (≈ 0.0988 µM); MIC [18]: ≤ 0.008 µg/mL; MIC [19]: 0.5 µg/mL (≈ 0.784 µM); MIC [20]: 64 µg/mL (≈ 100 µM); MIC [21]: 0.063 µg/mL (≈ 0.0988 µM); MIC [22]: 4 µg/mL (≈ 6.27 µM); MIC [23]: 2 µg/mL (≈ 3.14 µM); MIC [24]: 2 µg/mL (≈ 3.14 µM); MIC [25]: 0.063 µg/mL (≈ 0.0988 µM); MIC [26]: 0.063 µg/mL (≈ 0.0988 µM); MIC50 [27]: 0.13 µg/mL (≈ 0.204 µM); MIC90 [27]: 0.13 µg/mL (≈ 0.204 µM) |

— patent US5202315A, “Cephalosporin compounds” (Lucky, Ltd., priority 1989, dated 1993)
